Measured values taken from patent US20240174744A1, “METHODS OF TREATMENT USING PROTEIN BINDERS TO IRHOM2 EPITOPES” (SCIRHOM GMBH, priority 2021, published 2024).

These substances were tested on DSS-induced colitis (IBD) (assay: DSS-induced colitis (IBD) model in humanized NCG mice). Details: 25 mg/kg i.p. every two days, 8 mice per group.
Type: in vivo, mouse
Protocol: In the following study, an in vivo model was performed to verify the inhibitory effects of the antibodies of the present disclosure on DSS-induced colitis (IBD) in a mouse model for acute IBD. The experiment was carried out with female NOD/Shi-scid/IL-2Rγ null immunodeficient mouse strain (NCG). Mice were humanized using hematopoietic stem cells (CD34+) isolated from human cord blood following TransCure bioServices's proprietary humanization protocol. Only mice with a humanization rate (hCD45/total CD45) above 25% were used.
On day 1, mice were randomized based on the humanization rate and cord blood donors, acute colitis was induced by adding 3% of DSS (Sigma Aldrich, France) in drinking water (MilliQ water provided ad libitum) during […] from D1 to D7 and renewed every 2 days (only for groups #2, #3, #4, #5 and #6). For the recovery period, after the DSS cycle, the DSS solution was removed and replaced by MilliQ water (washout period) during 5 days from day 8 to day 12. […]
Endoscopy score was determined at D5 and D10. […] The endoscope was rectally inserted, and photographs of the endoscopic procedure were recorded. […]
Colon damages were evaluated during the endoscopy using TransCure bioServices's murine endoscopic index of colitis severity (MEICS) that consists of colon thickening, changes of vascular pattern, visible fibrin, granularity of mucosal surface and stool consistency as scoring parameters. […]
All mice were clinically monitored during the whole study for unexpected signs of distress, changes in body weight and evolution of disease severity. These parameters were recorded daily and each mouse was assigned a global IBD score, consisting of body weight, diarrhea & stool consistency and bleeding. The latter two were assessed by visually monitoring stool and mouse hairs around the anus and tail. Moreover, the mortality was also recorded.

| Substance | mice that survived the complete study period |
| --- | --- |
| Infliximab: Infliximab (Merck Sharp & Dohme, USA), comparator group #3 | two out of 8 |
| Adalimumab | two out of 8 |
| Tocilizumab: Tocilizumab (Roche, Switzerland), comparator group #4 | one out of 8 |
